Results as given in patent publication US20170304388A1, “NEW INDICATION OF CARDIOVASCULAR DRUGS FOR PREPARATION OF CANCER INHIBITION PHARMACEUTICAL COMPOSITION” (LAUNX BIOMEDICAL CO., LTD., priority 2014, published 2017).
Structures can show the parent of a compound that is named as a salt.

Experiments:
Format in all cases: cell-based
[1] = system: A549 (Lung Adenocarcinoma); experiment: Cell viability analysis (WST-1), A549; conditions: WST-1, OD450 nm; for viability at 10 µM: Homo sapiens, A549, 72 h, Table 3, drug 10 μM, read-out: survival rate (viability) of cancer cells, A549
cancer cell lines = experiment: Growth inhibitory effects on the panel of cancer cell lines; conditions: drug 10 μM, 72 hours; for Numbers of inhibitory effect on cancer cell line: count of cancer cell lines inhibited; for inhibition effect on different cancer cell lines (in words): WST-1
[2] = system: TSGH-8301 (Urinary Bladder Carcinoma); experiment: Cell viability analysis (WST-1), TSGH-8301; conditions: WST-1, OD450 nm; for viability at 10 µM: 72 h, Table 3, drug 10 μM, read-out: survival rate (viability) of cancer cells, TSGH
[3] = system: LoVo (Colorectal Adenocarcinoma); experiment: Cell viability analysis (WST-1), LoVo; conditions: WST-1, OD450 nm; for viability at 10 µM: Homo sapiens, LoVo, 72 h, Table 3, drug 10 μM, read-out: survival rate (viability) of cancer cells, LoVo
[4] = system: A375 (Amelanotic Melanoma); experiment: Cell viability analysis (WST-1), A375; conditions: WST-1, OD450 nm, lower viability = better inhibition; for viability at 10 µM: Homo sapiens, A-375, 72 h, Table 3, drug 10 μM, read-out: survival rate (viability) of cancer cells, A375
[5] = system: MKN-45 (Gastric Adenocarcinoma); experiment: Cell viability analysis (WST-1), MKN-45; conditions: WST-1, OD450 nm; for viability at 10 µM: Homo sapiens, MKN-45, 72 h, Table 3, drug 10 μM, read-out: survival rate (viability) of cancer cells, MKN-45
[6] = system: PC3 (Prostate Adenocarcinoma); experiment: Cell viability analysis (WST-1), PC3; conditions: WST-1, OD450 nm; for viability at 10 µM: 72 h, Table 3, drug 10 μM, read-out: survival rate (viability) of cancer cells, PC3
[7] = system: AGS (Gastric Adenocarcinoma); experiment: Cell viability analysis (WST-1), AGS; conditions: WST-1, OD450 nm; for viability at 10 µM: 72 h, Table 3, drug 10 μM, read-out: survival rate (viability) of cancer cells, AGS
[8] = system: HeLa (Cervix Adenocarcinoma); experiment: Cell viability analysis (WST-1), HeLa; conditions: WST-1, OD450 nm; for viability at 10 µM: Homo sapiens, HeLa, 72 h, Table 3, drug 10 μM, read-out: survival rate (viability) of cancer cells, HeLa
[9] = system: MCF7 (Mammary Gland, Adenocarcinoma); experiment: Cell viability analysis (WST-1), MCF7; conditions: WST-1, OD450 nm; for viability at 10 µM: Homo sapiens, MCF7, 72 h, Table 3, drug 10 μM, read-out: survival rate (viability) of cancer cells, MCF7
[10] = system: H1650 (Lung Adenocarcinoma); experiment: Cell viability analysis (WST-1), H1650; conditions: WST-1, OD450 nm; for viability at 10 µM: Homo sapiens, NCI-H1650, 72 h, Table 3, drug 10 μM, read-out: survival rate (viability) of cancer cells, H1650
[11] = system: HCT116 (Colorectal Carcinoma); experiment: Cell viability analysis (WST-1), HCT116; conditions: WST-1, OD450 nm; for viability at 10 µM: Homo sapiens, HCT-116, 72 h, Table 3, drug 10 μM, read-out: survival rate (viability) of cancer cells, HCT116 (WT)
[12] = system: HL-60 (Acute Promyelocytic Leukemia); experiment: Cell viability analysis (WST-1), HL-60; conditions: Table 3, drug 10 μM, 72 hours, WST-1, OD450 nm; for viability at 10 µM: Homo sapiens, HL-60, read-out: survival rate (viability) of cancer cells, HL-60
[13] = system: HepG2 (Hepatocellular Carcinoma); experiment: Cell viability analysis (WST-1), HepG2; conditions: WST-1, OD450 nm; for viability at 10 µM: Homo sapiens, HepG2, 72 h, Table 3, drug 10 μM, read-out: survival rate (viability) of cancer cells, HepG2

SMILES | viability at 10 µM [1] | Numbers of inhibitory effect on cancer cell line (cancer cell lines) | inhibition effect on different cancer cell lines (in words) (cancer cell lines) | viability at 10 µM [2] | viability at 10 µM [3] | viability at 10 µM [4] | viability at 10 µM [5] | viability at 10 µM [6] | viability at 10 µM [7] | viability at 10 µM [8] | viability at 10 µM [9] | viability at 10 µM [10] | viability at 10 µM [11] | viability at 10 µM [12] | viability at 10 µM [13] | further results
CC(=O)Oc1ccc(C(c2ccc(OC(C)=O)cc2)c2ccccn2)cc1 [Bisacodyl] | 66.7% | 0 | significant inhibition effect | 104% | 85.5% | 88% | 132% | 83.7% | 107% | 89.2% | 65% | 93.6% | 122% | 96% | 100% | 
CC(C)NCC(O)COc1ccc(COCCOC(C)C)cc1 (centres unmarked) [Bisoprolol] | 124% | 0 | significant inhibition effect | 87.5% | 119% | 117% | 79.7% | 95.2% | 80.3% | 111% | 112% | 80.7% | 118% | 85.7% | 108% | 
CCCCNc1cc(C(=O)O)cc(S(N)(=O)=O)c1Oc1ccccc1 [Bumetanide] | 88.2% | 0 | significant inhibition effect | 92.6% | 98.6% | 67.6% | 98.8% | 72.7% | 69.9% | 79.5% | 116% | 105% | 66.8% | 98.3% | 86% | 
O=C(O)c1cc(=O)c2ccccc2o1 [Chromocarb] | 61.1% | 0 | significant inhibition effect | 97.2% | 72.5% | 63.4% | 100% | 88.3% | 81.8% | 67.6% | 100% | 78.8% | 72.8% | 110% | 95.6% | 
Cc1cccc(Cc2c[nH]cn2)c1C [Detomidine HCl] | 81.1% | 0 | significant inhibition effect | 74.2% | 91% | 84.8% | 91% | 89.2% | 68.5% | 88.8% | 106% | 90.6% | 133% | 105% | 102% | 
Cc1c(OCC(F)(F)F)ccnc1C[S@@+]([O-])c1nc2ccccc2[nH]1 [Dexlansoprazole] | 74.5% | 0 | significant inhibition effect | 84.9% | 102% | 75.1% | 85.8% | 104% | 89.8% | 105% | 72.1% | 69.6% | 82.8% | 72.2% | 120% | 
CNC[C@@H](O)c1ccc(O)c(O)c1 [L-Adrenaline (Epinephrine), L-Adrenaline] |  | 0 | significant inhibition effect |  |  |  |  |  |  |  |  |  |  |  |  | survival rate (viability) of cancer cells, A549 ([1]; Table 3, drug 10 μM, 72 hours): 90.8; survival rate (viability) of cancer cells, TSGH ([2]; Table 3, drug 10 μM, 72 hours): 64.7; survival rate (viability) of cancer cells, LoVo ([3]; Table 3, drug 10 μM, 72 hours): 93.6; survival rate (viability) of cancer cells, A375 ([4]; Table 3, drug 10 μM, 72 hours): 101.9; survival rate (viability) of cancer cells, MKN-45 ([5]; Table 3, drug 10 μM, 72 hours): 69.4; survival rate (viability) of cancer cells, PC3 ([6]; Table 3, drug 10 μM, 72 hours): 106.0; survival rate (viability) of cancer cells, AGS ([7]; Table 3, drug 10 μM, 72 hours): 61.1; survival rate (viability) of cancer cells, HeLa ([8]; Table 3, drug 10 μM, 72 hours): 88.7; survival rate (viability) of cancer cells, MCF7 ([9]; Table 3, drug 10 μM, 72 hours): 123.0; survival rate (viability) of cancer cells, H1650 ([10]; Table 3, drug 10 μM, 72 hours): 76.6; survival rate (viability) of cancer cells, HCT116 (WT) ([11]; Table 3, drug 10 μM, 72 hours): 85.0; survival rate (viability) of cancer cells, HL-60 [12]: 101.8; survival rate (viability) of cancer cells, HepG2 ([13]; Table 3, drug 10 μM, 72 hours): 81.6
CC(C)NC[C@H](O)COc1ccc(CCOCC2CC2)cc1 [Levobetaxolol HCl] | 75.9% | 0 | significant inhibition effect | 98.2% | 80% | 76.9% | 119% | 77.3% | 62.5% | 88.7% | 85% | 69.9% | 70.3% | 107% | 99.2% | 
O=C(O)c1nn(Cc2ccc(Cl)cc2Cl)c2ccccc12 [Lonidamine] | 109% | 0 | significant inhibition effect | 86.4% | 96.1% | 65.8% | 93.3% | 102% | 69.9% | 61.6% | 86.9% | 65.9% | 81.2% | 115% | 114% | 
CO[C@@H]1[C@@H](OC(N)=O)[C@@H](O)[C@H](Oc2ccc3c(O)c(NC(=O)c4ccc(O)c(CC=C(C)C)c4)c(=O)oc3c2C)OC1(C)C [Novobiocin sodium (Albamycin), Novobiocin sodium] | 95.2% | 0 | significant inhibition effect | 85.3% | 87.1% | 93.4% | 84.4% | 89% | 128% | 96.1% | 109% | 93.5% | 116% | 123% | 92% | 
CC(=O)O[C@H]1C[C@@H]2CC[C@@H]3[C@H](CC[C@@]4(C)[C@H]3C[C@H]([N+]3(C)CCCCC3)[C@@H]4OC(C)=O)[C@@]2(C)C[C@@H]1[N+]1(C)CCCCC1 [Pancuronium (Pavulon), Pancuronium] | 100% | 0 | significant inhibition effect | 68.3% | 79.8% | 75.4% | 95.3% | 108% | 120% | 83.3% | 110% | 91.7% | 102% | 109% | 92.7% | 
CCCNCC(O)COc1ccccc1C(=O)CCc1ccccc1 (centres unmarked) [Propafenone (Rytmonorm), Propafenone] | 94.1% | 0 |  | 61.1% | 105% | 95.8% | 84.7% | 104% | 79.8% | 109% | 120% | 92.5% | 109% | 113% | 86% | 
